According to article PMC6199744, “Development of Chemical Proteomics for the Folateome and Analysis of the Kinetoplastid Folateome” (ACS Infectious Diseases, 2018):
Where two headings read alike, the source gives them in different places.

System: T. brucei lysate proteins
Format: binding, Trypanosoma brucei
Settings: vehicle control = 1

NCCOCCOCC(=O)Nc1nc2ncc(CNc3ccc(C(=O)NC(CCC(=O)O)C(=O)O)cc3)nc2c(=O)[nH]1 (stereo not shown) [compound 6]
fold change (protein TB427.06.2550 RNA-BINDING PROTEIN, PUTATIVE): 0.94 | fold change (protein TB427.06.3500 ENDOSOMAL T[…] RME-8, PUTATIVE): 0.83 | fold change (protein TB427.06.3630 SPHINGOSINE 1-PHOSPHATE LYASE, PUTATIVE): 0.95 | fold change (protein TB427.06.3650 ADP-RI[…], PUTATIVE): 0.98 | fold change (protein TB427.06.3670 PAR[…] COMPONENT, PUTATIVE): 0.88 | fold change (protein TB427.06.4890 S-ADENOSYL[…], PUTATIVE): 1.19 | fold change (protein TB427.06.700 ALANYL-TRNA SYNTHETASE, PUTATIVE): 0.97 | fold change vs vehicle control (protein TB427.07.1300 PROTEIN DISULFIDE ISOMERASE, PUTATIVE): 1.37 | fold change (protein TB427.07.2340 40S RIBOSOMAL PROTEIN S15, PUTATIVE): 0.89 | fold change (protein TB427.07.2770 HY[…], CONSERVED): 0.86 | fold change (protein TB427.07.3530 HY[…], CONSERVED): 0.98 | fold change (protein TB427.07.3980 IMMU[…], PUTATIVE): 0.79 | fold change vs vehicle control (protein TB427.07.4170 FATTY ACID ELONGASE, PUTATIVE): 0.97 | fold change (protein TB427.07.4180 FATTY ACID ELONGASE, PUTATIVE): 0.95 | fold change (protein TB427.07.4970 GLUTAMINE SYNTHETASE, PUTATIVE): 0.85 | fold change (protein TB427.07.7070 HY[…], CONSERVED): 0.92 | fold change vs vehicle control (protein TB427.07.7500 THYMINE-7-HYDROXYLASE, PUTATIVE): 0.35 | fold change (protein TB427.08.2060 HY[…], CONSERVED): 0.87 | fold change (protein TB427.08.2080 HY[…], CONSERVED): 1.19 | fold change (protein TB427.08.3490 HY[…], CONSERVED): 0.98 | fold change (protein TB427.08.3530 GLYCEROL-3-PHOSPHATE DEH[…]+], GLYCOSOMAL): 1 | fold change vs vehicle control (protein TB427.08.3660 PROTEIN TRANSPORT PROTEIN SEC23): 0.99 | fold change vs vehicle control (protein TB427.08.3750 NUCLEOLAR PROTEIN, PUTATIVE): 0.96 | fold change (protein TB427.08.3870 HY[…], CONSERVED): 0.99 | fold change (protein TB427.08.4210 HY[…], CONSERVED): 1.19 | fold change (protein TB427.08.650 CATION-TR[…], PUTATIVE): 0.94 | fold change (protein TB427.10.10020 HY[…], CONSERVED): 0.97 | fold change (protein TB427.10.10350 PROTEIN KINASE, PUTATIVE): 0.86 | fold change (protein TB427.10.10360 MICROTUBULE-[…], PUTATIVE): 0.85 | fold change vs vehicle control (protein TB427.10.10610 PROTEIN TYROSINE PHOSPHATASE, PUTATIVE): 1.7 | fold change vs vehicle control (protein TB427.10.1100 60S RIBOSOMAL PROTEIN L9, PUTATIVE): 1.14 | fold change vs vehicle control (protein TB427.10.12510 P-TYPE H+-ATPASE, PUTATIVE): 1.28 | fold change (protein TB427.10.12710 HEAT SHOCK PROTEIN, PUTATIVE): 1.53 | fold change vs vehicle control (protein TB427.10.14470 INTR[…] PROTEIN IFT140, PUTATIVE): 1.46 | fold change (protein TB427.10.1450 HY[…], CONSERVED): 0.97 | fold change vs vehicle control (protein TB427.10.14550 ATP-DEPENDENT DEAD/H RNA HELICASE, PUTATIVE): 1.1 | fold change vs vehicle control (protein TB427.10.14930 HY[…], CONSERVED): 0.95 | fold change vs vehicle control (protein TB427.10.14950 RNA BINDING PROTEIN, PUTATIVE): 0.98 | fold change (protein TB427.10.14990 INTR[…] PROTEIN IFT80/CHE2, PUTATIVE): 1.1 | fold change (protein TB427.10.15720 […]-ATP-ASE SUBUNIT 9): 0.84 | fold change (protein TB427.10.2020 HEXOKINASE): 1.29 | fold change (protein TB427.10.2290 CHAPERONE PROTEIN DNAJ, PUTATIVE): 0.86 | fold change (protein TB427.10.2440 METACASPASE MCA4): 0.89 | fold change vs vehicle control (protein TB427.10.3470 HY[…], CONSERVED): 1.1 | fold change vs vehicle control (protein TB427.10.5810 HY[…], CONSERVED): 1.81 | fold change (protein TB427.10.6150 […]/BEIGE PROTEIN, PUTATIVE): 0.67 | fold change (protein TB427.10.6310 MAJOR VAULT PROTEIN, PUTATIVE): 0.93 | fold change (protein TB427.10.730 ATP SYNTHASE, PUTATIVE): 0.83 | fold change vs vehicle control (protein TB427.10.7620 MIT[…]-DEPENDENT ZINC METALLOPEPTIDASE, PUTATIVE): 0.98 | fold change vs vehicle control (protein TB427.10.8230 PROTEIN DISULFIDE ISOMERASE): 1.84 | fold change (protein TB427.10.8910 HY[…], CONSERVED): 0.91 | fold change vs vehicle control (protein TB927.10.13290 ETHANOLAMINE PHOSPHOTRANSFERASE (EPT)): 1.14 | fold change vs vehicle control (protein TB927.10.13780 GLYCOGEN SYNTHASE KINASE 3): 0.99 | fold change vs vehicle control (protein TB927.10.14980 INTR[…] PROTEIN IFT52, PUTATIVE): 1.23 | fold change vs vehicle control (protein TB927.10.2640 INTR[…] PROTEIN IFT81, PUTATIVE): 0.98 | fold change vs vehicle control (protein TB927.10.2890 ENOLASE): 1.58 | fold change (protein TB927.10.2980 […]-ATPASE SUBUNIT 11): 0.89 | fold change (protein TB927.10.3990 DHH1): 1.1 | fold change (protein TB927.10.4180 TFIIF-[…] PHOSPHATASE, PUTATIVE): 1 | fold change vs vehicle control (protein TB927.10.4570 […] 2): 1.74 | fold change (protein TB927.10.5370 40S RIBOSOMAL PROTEIN S10, PUTATIVE): 0.89 | fold change (protein TB927.10.5500 HY[…], CONSERVED): 0.92 | fold change vs vehicle control (protein TB927.10.560 40S RIBOSOMAL PROTEINS S11, PUTATIVE): 1.25 | fold change (protein TB927.10.6050 CLATHRIN HEAVY CHAIN): 0.85 | fold change (protein TB927.10.7090 A[…]): 1.37 | fold change vs vehicle control (protein TB927.10.8940 HY[…], CONSERVED): 0.88 | fold change (protein TB927.2.2770 HY[…] TB927 2 2770): 1.1 | fold change (protein TB927.2.3800 MRNA […], PUTATIVE): 0.69 | fold change (protein TB927.3.1240 PROTEIN PHOSPHATASE 2A, PUTATIVE): 0.98 | fold change vs vehicle control (protein TB927.3.2960 INOSINE-ADENOSINE-GUANOSINE-[…]): 1.36 | fold change (protein TB927.3.3270 ATP-DEPENDENT PHOSPHOFRUCTOKINASE): 0.93 | fold change vs vehicle control (protein TB927.3.3450 ADP-RI[…]-LIKE PROTEIN 3A, PUTATIVE): 2.16 | fold change vs vehicle control (protein TB927.3.3490 HIGH MOBILITY GROUP PROTEIN, PUTATIVE): 1.55 | fold change (protein TB927.3.3780 TRYPAREDOXIN): 0.94 | fold change vs vehicle control (protein TB927.3.5120 HY[…], CONSERVED (Ankyrin repeats (3 copies), putative)): 1.38 | fold change vs vehicle control (protein TB927.3.740 HY[…], CONSERVED): 0.97 | fold change vs vehicle control (protein TB927.4.2740 HY[…], CONSERVED (p25-alpha, putative)): 1.55 | fold change (protein TB927.4.3590 T[…] 1-BETA, PUTATIVE): 1.46 | fold change vs vehicle control (protein TB927.4.3820 HY[…], CONSERVED): 0.99 | fold change (protein TB927.4.5310 SERINE/THREONINE-PROTEIN KINASE A, PUTATIVE): 0.95 | fold change (protein TB927.5.1630 HY[…], CONSERVED): 0.86 | fold change (protein TB927.5.3220 SIGNAL PEPTIDASE TYPE I, PUTATIVE): 0.87 | fold change vs vehicle control (protein TB927.5.4440 DYNEIN LIGHT CHAIN, PUTATIVE): 0.98 | fold change (protein TB927.6.2200 HY[…], CONSERVED): 1 | fold change vs vehicle control (protein TB927.7.1750 60S RIBOSOMAL PROTEIN L7, PUTATIVE): 1.31 | fold change (protein TB927.7.2140 HY[…]): 0.83 | fold change vs vehicle control (protein TB927.7.4470 HY[…], CONSERVED): 1.18 | fold change vs vehicle control (protein TB927.7.7430 ATP SYNTHASE ALPHA CHAIN, MIT[…]): 1.18 | fold change (protein TB927.8.1510 ATP-DEPENDENT DEAD/H RNA HELICASE, PUTATIVE): 0.96 | fold change (protein TB927.8.1990 PEROXIDOXIN): 0.97 | fold change (protein TB927.8.4770 SMALL GTP-BINDING PROTEIN RAB18): 0.96
